Measured values from US7538107B2, “Oxazinan-2-one derivatives useful as PR modulators” (Wyeth, priority 2006, dated 2009).

Columns and labels:
progesterone receptor = biological target: T1, progesterone receptor (Homo sapiens, UniProt P06401); experiment: Effects of progestins and antiprogestins on alkaline phosphatase activity in T47D cells; format: cell-based; conditions: antagonist mode in the presence of 1 nM progesterone, 24 h, read-out: T47D Alkaline Phosphatase Activity IC50 (nM) or % inhibition
T1 construct: determining a compound's effect on alkaline phosphatase activity in T47D cells; endogenous in cells; host or cells: T47D cells
T1 sequence (P06401 1-933): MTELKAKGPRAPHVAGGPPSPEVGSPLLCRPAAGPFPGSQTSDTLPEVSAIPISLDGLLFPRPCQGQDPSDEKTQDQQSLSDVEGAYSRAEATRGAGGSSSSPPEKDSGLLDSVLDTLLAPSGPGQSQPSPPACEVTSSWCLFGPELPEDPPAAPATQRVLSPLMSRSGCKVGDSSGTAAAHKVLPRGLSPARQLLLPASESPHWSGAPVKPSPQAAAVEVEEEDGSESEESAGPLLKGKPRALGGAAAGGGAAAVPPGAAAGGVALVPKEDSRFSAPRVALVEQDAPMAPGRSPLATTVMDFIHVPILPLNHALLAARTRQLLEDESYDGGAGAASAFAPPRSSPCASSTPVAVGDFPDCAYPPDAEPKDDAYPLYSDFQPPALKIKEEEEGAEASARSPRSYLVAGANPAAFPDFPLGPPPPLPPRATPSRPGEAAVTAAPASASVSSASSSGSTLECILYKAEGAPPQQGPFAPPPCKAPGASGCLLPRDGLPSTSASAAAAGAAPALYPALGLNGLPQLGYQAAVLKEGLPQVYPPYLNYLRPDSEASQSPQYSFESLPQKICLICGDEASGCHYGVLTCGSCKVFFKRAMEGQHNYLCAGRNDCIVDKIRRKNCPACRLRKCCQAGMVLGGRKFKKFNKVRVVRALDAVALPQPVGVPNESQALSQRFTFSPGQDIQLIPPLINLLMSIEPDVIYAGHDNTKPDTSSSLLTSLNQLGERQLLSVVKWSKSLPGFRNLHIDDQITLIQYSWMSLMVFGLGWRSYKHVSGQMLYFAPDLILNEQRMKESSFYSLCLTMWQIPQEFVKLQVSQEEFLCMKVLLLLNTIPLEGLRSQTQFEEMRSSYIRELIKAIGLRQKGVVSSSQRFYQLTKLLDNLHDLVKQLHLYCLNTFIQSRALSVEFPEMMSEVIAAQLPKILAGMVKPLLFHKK
Description: (1) Effects of Progestins and Antiprogestins on Alkaline Phosphatase Activity in T47D Cells
PURPOSE: To identify progestins or antiprogestins by determining a compound's effect on alkaline phosphatase activity in T47D cells.
Culture Medium: • DMEM:F12 (1:1) (GIBCO, BRL) supplemented with 5% (v/v) charcoal stripped fetal bovine serum (not heat-inactivated), 100 U/mL penicillin, 100 μg/mL streptomycin, and 2 mM the GlutaMax™ reagent (GEBCO, BRL).
Alkaline phosphatase assay buffer: • I. 0.1M Tris-HCl, pH 9.8, containing 0.2% the Triton® X-100 reagent • II. 0.1M Tris-HCl, pH 9.8, containing 4 mM p-nitrophenyl phosphate (Sigma). B. Cell Culture and Treatment:
Frozen T47D cells were thawed in a 37° C. water bath and diluted to 280,000 cells/mL in culture medium. To each well in a 96-well plate (Falcon, Becton Dickinson Labware), 180 μL of diluted cell suspension was added.
Twenty μL of reference or test compounds diluted in the culture medium was then added to each well. […]
For reference and test compounds, a dose response curve was generated for dose (X-axis) vs. the rate of enzyme reaction (slope) (Y-axis). […] EC50 or IC50 values were calculated from the retransformed values. […]
Progesterone and trimegestone were reference progestins and RU486 was the reference antiprogestin. All reference compounds were run in full dose response curves and the EC50 and IC50 values were calculated.

Structure (SMILES) | melting point [°C] | IC50 (progesterone receptor) [nM]
C[C@@H]1COC(=O)N1c1nc(-c2ccc(Br)cc2)cs1 [Example 1, (4R)-3-[4-(4-Bromophenyl)-1,3-thiazol-2-yl]-4-methyl-1,3-oxazolidin-2-one] | 197 to 199 | 
CCC[C@@H]1COC(=O)N1c1nc(-c2ccc(Br)cc2)cs1 [Example 2, (4R)-3-[4-(4-Bromophenyl)-1,3-thiazol-2-yl]-4-propyl-1,3-oxazolidin-2-one] | 114 to 116 | 
O=C1OCCCN1c1nc(-c2ccc(Br)cc2)cs1 [Example 3, 3-[4-(4-Bromophenyl)-1,3-thiazol-2-yl]-1,3-oxazinan-2-one] | 225 to 227 | 238
CC1(C)COC(=O)N(c2nc(-c3ccc(Br)cc3)cs2)C1 [Example 4, 3-[4-(4-Bromophenyl)-1,3-thiazol-2-yl]-5,5-dimethyl-1,3-oxazinan-2-one] | 169 to 171 | 1370
